Experimental findings from paper doi:10.1101/2025.07.30.667614, “Steric control of signaling bias in the immunometabolic receptor GPR84” (bioRxiv, 2025) are described below.

In assay [1] the target is T1, GPR84 (Homo sapiens, UniProt Q9NQS5). Put plainly: CHO-K1-based PathHunter β-arrestin-2 recruitment assay. Format: cell-based. On the set-up: host or cells: CHO-K1. As to conditions: for Emax: read-out: β-arrestin-2 %Emax ± SEM; for EC50: wild type GPR84, CHO-K1 PathHunter, read-out: β-arrestin-2 pEC50 ± SEM (converted); for change in efficacy in β-arrestin-2 recruitment: compared to OX04929 (so in the source). On the procedure: Cells were stimulated with test ligands for 90 min. Compounds were prepared at 5× concentration in DPBS containing 0.1% BSA and 0.125% Tween-80 to minimise aggregation. β-arrestin recruitment was quantified using the PathHunter® β-Arrestin Assay (DiscoverX 93-0001) following the manufacturer’s instructions. Luminescence was recorded after 18 h using a PHERAstar® FS plate reader.
T1 sequence (Q9NQS5 whole entry): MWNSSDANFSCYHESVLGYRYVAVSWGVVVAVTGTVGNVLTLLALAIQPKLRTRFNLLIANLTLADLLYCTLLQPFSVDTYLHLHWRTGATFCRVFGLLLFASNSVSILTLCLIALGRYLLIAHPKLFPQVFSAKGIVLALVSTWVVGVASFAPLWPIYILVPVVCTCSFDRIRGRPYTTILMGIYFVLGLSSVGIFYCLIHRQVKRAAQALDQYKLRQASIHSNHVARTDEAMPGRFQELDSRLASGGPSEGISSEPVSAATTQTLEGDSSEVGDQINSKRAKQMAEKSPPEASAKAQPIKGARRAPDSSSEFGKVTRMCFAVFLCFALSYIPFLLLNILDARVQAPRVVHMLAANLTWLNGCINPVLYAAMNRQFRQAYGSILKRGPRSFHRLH

Assay [2] deals with T1, GPR84. The assay is described as follows: CHO-K1-based HitHunter cAMP inhibition assay. Format: cell-based. As to conditions: wild type GPR84; for EC50: CHO-K1 cells, forskolin 25 μM, read-out: cAMP pEC50 ± SEM (converted); for Emax: normalised to capric acid (100 μM), read-out: cAMP %Emax ± SEM. On the procedure:
CHO-K1 cells stably expressing human GPR84 (DiscoverX 95-0158C2) were seeded in 384-well plates at 15,000 cells per well in 20 μL of F12 medium supplemented with 10% fetal bovine serum (FBS), 19 mM HEPES, and 1% penicillin-streptomycin. After overnight incubation at 37 °C and 5% CO2, the medium was removed and replaced with PBS containing 0.1% BSA. Cells were stimulated for 30 min with forskolin (25 μM) and test compounds prepared in Dulbecco’s PBS (DPBS) with 0.1% BSA. Compounds were dissolved in DMSO and diluted appropriately. cAMP levels were quantified using the HitHunter® cAMP Assay for Small Molecules (DiscoverX 90-0075SM2) according to the manufacturer’s protocol. Luminescence was measured 18 h post-assay using a PHERAstar® FS plate reader (BMG Labtech).

For assay [3], the target named is GPR84-WT (GPR84-Gi2α fusion protein) (Homo sapiens, UniProt Q9NQS5). Put plainly: [35S]GTPγS binding assay. Format: biochemical. As to conditions: [35S]GTPγS; GPR84-WT; Extended Data Table 3; read-out: pEC50 ± SEM (converted). On the procedure: Membranes were generated from Flp-In™ T-REx™ 293 cells following 100 ng/ml doxycycline treatment to induce receptor expression. Cells were washed with ice-cold phosphate-buffered saline (PBS), removed from dishes by scraping and centrifuged at 1,800 x g for 5 min at 4 °C. Pellets were resuspended in TE buffer (10mM Tris-HCl, 0.1 mM EDTA; pH 7.4) containing a protease inhibitor mixture and homogenized with a 5 ml hand-held homogenizer. Samples were centrifuged at 450 x g for 5 min at 4 °C and the supernatant was further centrifuged at 90,000 x g for 45 min at 4 °C. The resulting pellet was resuspended in TE buffer and protein content was assessed using a BCA protein assay kit.
Chain of GPR84-WT (GPR84-Gi2α fusion protein) (Q9NQS5 whole entry, the tested form may be a part): as the sequence (Q9NQS5 whole entry) above
Chain of GPR84-WT (GPR84-Gi2α fusion protein) (P04899 with tags, fused parts or gaps C352I partner): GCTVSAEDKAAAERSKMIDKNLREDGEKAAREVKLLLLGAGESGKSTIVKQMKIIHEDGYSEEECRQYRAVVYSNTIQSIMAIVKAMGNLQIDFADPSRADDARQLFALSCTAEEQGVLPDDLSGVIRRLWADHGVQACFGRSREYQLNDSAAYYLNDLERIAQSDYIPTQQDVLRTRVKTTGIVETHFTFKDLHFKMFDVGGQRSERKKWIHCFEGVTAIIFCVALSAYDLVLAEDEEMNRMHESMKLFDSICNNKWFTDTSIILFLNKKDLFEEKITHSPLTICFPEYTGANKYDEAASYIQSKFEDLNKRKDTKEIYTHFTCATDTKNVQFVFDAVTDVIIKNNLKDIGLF
Prepared membrane protein (3 μg per well) was incubated in assay buffer (20 mM HEPES, 5 mM MgCl2, 160 mM NaCl, 0.05 % fatty-acid-free bovine serum albumin; pH 7.4) containing the indicated ligand concentrations. The reaction was initiated by addition of [^35S]GTPγS (100 nCi per reaction) with 1 μM GDP, and incubated at 30 °C for 60 min. The reaction was terminated by rapid vacuum filtration through GF/C glassfibre filter-bottom 96-well microplates using a UniFilter FilterMate Harvester (PerkinElmer). Unbound radioligand was removed from filters by three washes with ice-cold PBS. Ultima Gold™ XR was added to dried filters, and [^35S]GTPγS binding quantified by liquid scintillation spectroscopy.
Background: Binding of GTPγS marks nucleotide exchange on a G protein.

The Emax is the greatest response seen or fitted, relative to the assay's reference. In the case of `[O-][n+]1cc(O)cc(CCCCc2ccc(Cl)cc2)c1` [OX04540], the Emax in assay [1] came to 81 ± 5.3%; in assay [2] it was 97 ± 0.7%. Moreover, the EC50 was 110 nM in assay [1] and 0.0204 nM in assay [2].

On to `[O-][n+]1cc(O)cc(CCCCc2ccc(Cl)c(CF)c2)c1` [OX04960], for which the EC50 is 6.31 nM in assay [3], 447 nM in assay [1] and 0.0102 nM in assay [2]. Besides, the results for the Emax in assay [1] and in assay [2] were 45 ± 1.2% and 107 ± 2.1%, respectively.

On to `CC(C)c1cc(CCCCc2cc(O)c[n+]([O-])c2)ccc1Cl` [OX04964], for which, in assay [1], the “change in efficacy in β-arrestin-2 recruitment” value is given as “no significant change” and the Emax was found to be 9 ± 1.4%. In assay [2], the EC50 is 0.0145 nM and the Emax turned out to be 94 ± 7.4%.

Consider `[O-][n+]1cc(O)cc(CCCCc2ccc(Cl)c(CO)c2)c1` [OX04955], for which, in assay [1], the Emax amounted to 21 ± 2.9% and the EC50 is 263 nM. In assay [2], the EC50 is 0.0355 nM and the Emax was 101 ± 1.5%.

Turning to `[O-][n+]1cc(O)cc(CCCCc2ccc(Cl)c(C(F)F)c2)c1` [OX04959], the EC50 in assay [3] is 3.98 nM; in assay [1], 151 nM; in assay [2], 0.00724 nM. In addition, the Emax was determined as 24 ± 2.3% in assay [1] and 95 ± 11.5% in assay [2].

As for `[O-][n+]1cc(O)cc(CCCCc2ccc(Cl)c(Br)c2)c1` [OX04956], in assay [1], the Emax was found to be 34 ± 6% and the EC50 is 138 nM. In assay [2], the EC50 was 0.00912 nM and the Emax turned out to be 98 ± 2.1%.

`C=Cc1cc(CCCCc2cc(O)c[n+]([O-])c2)ccc1Cl` [OX04962]: in assay [1], the “change in efficacy in β-arrestin-2 recruitment” value is given as “no significant change”, the Emax is 18 ± 2.2% and the EC50 was 178 nM. Also, in assay [2], the EC50 is 0.00933 nM and the Emax is 97 ± 3.4%.
